Measured values: PubChem BioAssay (NCI)
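GI50: concentration for 50% inhibition of growth. TGI marks complete inhibition of growth.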

Experiments:
Assay in all cases: inhibition of tumour cell growth, NCI panel, 384-well format
786-0 renal = test system: 786-0 renal
A498 renal = test system: A498 renal
A549 NSCLC = test system: A549 NSCLC
ACHN renal = test system: ACHN renal
BT-549 breast = test system: BT-549 breast
CAKI-1 renal = test system: CAKI-1 renal
CCRF-CEM leukemia = test system: CCRF-CEM leukemia
COLO 205 colon = test system: COLO 205 colon
DU-145 prostate = test system: DU-145 prostate
HCC-2998 colon = test system: HCC-2998 colon
HCT-116 colon = test system: HCT-116 colon
HCT-15 colon = test system: HCT-15 colon
HL-60(TB) leukemia = test system: HL-60(TB) leukemia
HOP-62 NSCLC = test system: HOP-62 NSCLC
HOP-92 NSCLC = test system: HOP-92 NSCLC
HT29 colon = test system: HT29 colon
IGROV1 ovarian = test system: IGROV1 ovarian
K-562 leukemia = test system: K-562 leukemia
KM12 colon = test system: KM12 colon
LOX IMVI melanoma = test system: LOX IMVI melanoma
M14 melanoma = test system: M14 melanoma
MALME-3M melanoma = test system: MALME-3M melanoma
MCF7 breast = test system: MCF7 breast
MDA-MB-231 breast = test system: MDA-MB-231 breast
MDA-MB-435 melanoma = test system: MDA-MB-435 melanoma
MDA-MB-468 breast = test system: MDA-MB-468 breast
MOLT-4 leukemia = test system: MOLT-4 leukemia
NCI-H226 lung = test system: NCI-H226 lung
NCI-H23 lung = test system: NCI-H23 lung
NCI-H322M lung = test system: NCI-H322M lung
NCI-H460 NSCLC = test system: NCI-H460 NSCLC
NCI-H522 lung = test system: NCI-H522 lung
NCI/ADR-RES ovarian = test system: NCI/ADR-RES ovarian
OVCAR-3 ovarian = test system: OVCAR-3 ovarian
OVCAR-4 ovarian = test system: OVCAR-4 ovarian
OVCAR-5 ovarian = test system: OVCAR-5 ovarian
OVCAR-8 ovarian = test system: OVCAR-8 ovarian
PC-3 prostate = test system: PC-3 prostate
RPMI-8226 leukemia = test system: RPMI-8226 leukemia
RXF 393 renal = test system: RXF 393 renal
SF-268 CNS = test system: SF-268 CNS
SF-295 CNS = test system: SF-295 CNS
SF-539 CNS = test system: SF-539 CNS
SK-MEL-2 melanoma = test system: SK-MEL-2 melanoma
SK-MEL-28 melanoma = test system: SK-MEL-28 melanoma
SK-MEL-5 melanoma = test system: SK-MEL-5 melanoma
SK-OV-3 ovarian = test system: SK-OV-3 ovarian
SN12C renal = test system: SN12C renal
SNB-19 CNS = test system: SNB-19 CNS
SR leukemia = test system: SR leukemia
SW-620 colon = test system: SW-620 colon
T-47D breast = test system: T-47D breast
TK-10 renal = test system: TK-10 renal
U251 glioblastoma = test system: U251 glioblastoma
UACC-257 melanoma = test system: UACC-257 melanoma
UACC-62 melanoma = test system: UACC-62 melanoma
UO-31 renal = test system: UO-31 renal

COc1cc(N2CCC(N3CCN(C)CC3)CC2)ccc1Nc1ncnc(Nc2ccccc2S(=O)(=O)C(C)C)n1 showed a GI50 ([…]-0 renal) of 3.08 µM, a TGI (786-0 renal) of 12.6 µM and a GI50 (A498 renal) of 4.96 µM. For the same molecule, the TGI (A498 renal) was 17 µM, the GI50 (A549 NSCLC) was 2.48 µM and the TGI (A549 NSCLC) was 9.2 µM. It also gave a GI50 (ACHN renal) of 1.62 µM, a TGI (ACHN renal) of 5.15 µM and a GI50 (BT-549 breast) of 10.9 µM. It also gave a TGI (BT-549 breast) of 22.9 µM, a GI50 (CAKI-1 renal) of 2.17 µM and a TGI (CAKI-1 renal) of 5.5 µM. For the same molecule, the GI50 (CCRF-CEM leukemia) was 3.46 µM, the TGI (CCRF-CEM leukemia) was 10.3 µM and the GI50 (COLO 205 colon) was 2.31 µM. The TGI (COLO 205 colon) was 7.37 µM, the GI50 (DU-145 prostate) was 3.23 µM and the TGI (DU-145 prostate) was 11.8 µM. For the same molecule, the GI50 (HCC-2998 colon) was 2.49 µM, the TGI (HCC-2998 colon) was 14.3 µM and the GI50 (HCT-116 colon) was 3.34 µM. The TGI (HCT-116 colon) was 12.4 µM, the GI50 (HCT-15 colon) was 2.97 µM and the TGI (HCT-15 colon) was 11.1 µM. The GI50 (HL-60(TB) leukemia) was 2.68 µM, the TGI (HL-60(TB) leukemia) was 5.61 µM and the GI50 (HOP-62 NSCLC) was 2.85 µM. It also gave a TGI (HOP-62 NSCLC) of 8.12 µM, a GI50 (HOP-92 NSCLC) of 1.06 µM and a TGI (HOP-92 NSCLC) of 3.7 µM. For the same molecule, the GI50 (HT29 colon) was 1.29 µM, the TGI (HT29 colon) was 5.08 µM and the GI50 (IGROV1 ovarian) was 1.86 µM. For the same molecule, the TGI (IGROV1 ovarian) was 4.46 µM, the GI50 (K-562 leukemia) was 3.75 µM and the TGI (K-562 leukemia) was 15.3 µM. It also gave a GI50 (KM12 colon) of 3.76 µM, a TGI (KM12 colon) of 13.2 µM and a GI50 (LOX IMVI melanoma) of 2.3 µM. For the same molecule, the TGI (LOX IMVI melanoma) was 4.48 µM, the GI50 (M14 melanoma) was 2.38 µM and the TGI (M14 melanoma) was 7.72 µM. It also gave a GI50 (MALME-3M melanoma) of 3.41 µM, a TGI (MALME-3M melanoma) of 14.1 µM and a GI50 (MCF7 breast) of 1.04 µM. The TGI (MCF7 breast) was 6.1 µM, the GI50 (MDA-MB-231 breast) was 1.41 µM and the TGI (MDA-MB-231 breast) was 4.94 µM. The GI50 (MDA-MB-435 melanoma) was 1.95 µM, the TGI (MDA-MB-435 melanoma) was 5.18 µM and the GI50 (MDA-MB-468 breast) was 3.1 µM. For the same molecule, the TGI (MDA-MB-468 breast) was 9.91 µM, the GI50 (MOLT-4 leukemia) was 1.36 µM and the TGI (MOLT-4 leukemia) was 2.71 µM. It also gave a GI50 (NCI-H226 lung) of 1.42 µM, a TGI (NCI-H226 lung) of 3.68 µM and a GI50 (NCI-H23 lung) of 2.98 µM. The TGI (NCI-H23 lung) was 9.59 µM, the GI50 (NCI-H322M lung) was 2.86 µM and the TGI (NCI-H322M lung) was 9.29 µM. The GI50 (NCI-H460 NSCLC) was 3.3 µM, the TGI (NCI-H460 NSCLC) was 13.7 µM and the GI50 (NCI-H522 lung) was 1.86 µM. It also gave a TGI (NCI-H522 lung) of 6.09 µM, a GI50 (NCI/ADR-RES ovarian) of 2.56 µM and a TGI (NCI/ADR-RES ovarian) of 7.81 µM. It also gave a GI50 (OVCAR-3 ovarian) of 1.58 µM, a TGI (OVCAR-3 ovarian) of 4.46 µM and a GI50 (OVCAR-4 ovarian) of 1.49 µM. The TGI (OVCAR-4 ovarian) was 6.28 µM, the GI50 (OVCAR-5 ovarian) was 1.5 µM and the TGI (OVCAR-5 ovarian) was 4.24 µM. It also gave a GI50 (OVCAR-8 ovarian) of 2.99 µM, a TGI (OVCAR-8 ovarian) of 10.2 µM and a GI50 (PC-3 prostate) of 6.17 µM. It also gave a TGI (PC-3 prostate) of 19.8 µM, a GI50 (RPMI-8226 leukemia) of 1.27 µM and a TGI (RPMI-8226 leukemia) of 4.72 µM. It also gave a GI50 (RXF 393 renal) of 1.7 µM, a TGI (RXF 393 renal) of 6.37 µM and a GI50 (SF-268 CNS) of 3.13 µM. It also gave a TGI (SF-268 CNS) of 12.2 µM, a GI50 (SF-295 CNS) of 3.03 µM and a TGI (SF-295 CNS) of 8.73 µM. The GI50 (SF-539 CNS) was 2.29 µM, the TGI (SF-539 CNS) was 6.32 µM and the GI50 (SK-MEL-2 melanoma) was 1.43 µM. It also gave a TGI (SK-MEL-2 melanoma) of 3.68 µM, a GI50 (SK-MEL-28 melanoma) of 2.69 µM and a TGI (SK-MEL-28 melanoma) of 9.67 µM. For the same molecule, the GI50 (SK-MEL-5 melanoma) was 2.02 µM, the TGI (SK-MEL-5 melanoma) was 7.51 µM and the GI50 (SK-OV-3 ovarian) was 1.5 µM. It also gave a TGI (SK-OV-3 ovarian) of 5.26 µM, a GI50 (SN12C renal) of 2.6 µM and a TGI (SN12C renal) of 9.92 µM. For the same molecule, the GI50 (SNB-19 CNS) was 3.36 µM, the TGI (SNB-19 CNS) was 12.9 µM and the GI50 (SR leukemia) was 0.0183 µM. For the same molecule, the TGI (SR leukemia) was 0.0328 µM, the GI50 (SW-620 colon) was 3.26 µM and the TGI (SW-620 colon) was 12.3 µM. It also gave a GI50 (T-47D breast) of 1.46 µM, a TGI (T-47D breast) of 12.1 µM and a GI50 (TK-10 renal) of 2.95 µM. The TGI (TK-10 renal) was 9 µM, the GI50 (U251 glioblastoma) was 3.75 µM and the TGI (U251 glioblastoma) was 13.5 µM. For the same molecule, the GI50 (UACC-257 melanoma) was 2.1 µM, the TGI (UACC-257 melanoma) was 6.53 µM and the GI50 (UACC-62 melanoma) was 3.1 µM. The TGI (UACC-62 melanoma) was 14.8 µM, the GI50 (UO-31 renal) was 1.65 µM and the TGI (UO-31 renal) was 4.44 µM.
